The text below walks through data of patent US5342925A, “Radioactive compositions for soft tissue tumors” (priority 1991, dated 1994).

Several values for one entry are separate records, joined by “and”; a condition that tells them apart may be missing. Identical values can stand only once.

Data set [1] is described as follows: Whole body retention (whole body counts after I.V. injection) in miniature pigs with melanotic lesions. The class given is in vivo. To be noted: for % Whole Body Retention (24 hrs.): I.V., 1-2 mCi 153Sm, % = percentage of injected dose. The method, then: (§1) Images (right lateral, left lateral and dorsal) were made at 4, 24, 48 and 72 hours.
A short description of data set [2]: Bone and liver uptake scored from scintigraphic images of miniature pigs with melanotic lesions. Format: in vivo. The method, then:
as §1
(§2) 1--Slight uptake (negligible)
(§3) 2--Moderate uptake (intermediate )
(§4) 3--Definite uptake (high)
(§5) The average of the 3 investigators independent scores were used in the following table.

Data set [3] relates to naturally occurring melanotic lesions. Kind of data set: Tumor uptake scored from images of miniature pigs with naturally occurring melanotic lesions. Particulars: 24 hour images, average score of 3 investigators, scale 0-3. Format: in vivo. How it is done:
as §1, §2, §3, §4, §5

The conditions of data set [4]: in vivo; cited from earlier work.
The subject of another data set is Ehrlich tumors. Particulars: experimental animals bearing Ehrlich tumors; cited from earlier work.
The mark [5] stands for this setting: 24 hour images, average score of 3 investigators, scale 0-3.
The mark [6] stands for this setting: Comparative Example A, in words.

As to `CC(=O)Nc1cc(CN(CC(=O)O)CC(=O)O)c(O)c(CN(CC(=O)O)CC(=O)O)c1.[153Sm+3]` [Example 1], the “% Whole Body Retention (24 hrs.)” value in data set [1] was 29.5% and 40.1%. In data set [2] (setting [5]), the “Bone Uptake” value is on record as 3.00 and the “Liver Uptake” value is on record as 0.67. In addition, in data set [3], the “Tumor Uptake (Dorsal neck)” value came to 3.00, the “Tumor Uptake (Left stifle)” value stood at 2.00, the “Tumor Uptake (Right head)” value amounted to 0.67 and the “Tumor Uptake (Right thorax)” value is reported as 2.00.
For the compound `CC(=O)Nc1ccc(O)c(CN(CC(=O)O)CC(=O)O)c1.[153Sm+3]` [Example 2], in data set [1], the “% Whole Body Retention (24 hrs.)” value was 60.7% and 46.6%. In addition, in data set [2] (setting [5]), the “Bone Uptake” value is 1.33 and 2.33; the “Liver Uptake” value was 2.00 and 1.00. Moreover, in data set [3], the “Tumor Uptake (Dorsal neck)” value was determined as 3.00, the “Tumor Uptake (Left stifle)” value stood at 2.00, the “Tumor Uptake (Right head)” value is on record as 0.00 and the “Tumor Uptake (Right thorax)” value worked out at 0.00. Also, the “Tumor Uptake (draining node)” value in data set [3] (draining node) was found to be 0.00.
With `CC(=O)Nc1cc(CN(CC(=O)O)CC(=O)O)c(O)c(CN(CC(=O)O)CC(=O)O)c1.[153Sm+3]` [Example 3], in data set [1], the “% Whole Body Retention (24 hrs.)” value is 42.9% and 37.1%. For the same compound, in data set [3] (Left sacrum), the “Tumor Uptake (Left sacrum)” value is recorded as 3.00. The “Tumor Uptake (Right nasal)” value in data set [3] (Right nasal) turned out to be 2.00. Moreover, in data set [3] (Right stifle), the “Tumor Uptake (Right stifle)” value came out at 0.00.
For `CC(=O)Nc1cc(CN(CC(=O)O)CC(=O)O)c(O)c(CN(CC(=O)O)CC(=O)O)c1.[153Sm+3]` [Example 4], in data set [1], the “% Whole Body Retention (24 hrs.)” value was 55.2% and 48.2%. Also, in data set [2] (setting [5]), the “Bone Uptake” value was 1.67; the “Liver Uptake” value is 3.00 and 2.00. The “Tumor Uptake (Left carpus)” value in data set [3] (Left carpus) was 0.00. The “Tumor Uptake (Left stifle)” value in data set [3] was 0.00. Also, in data set [3] (Right ear), the “Tumor Uptake (Right ear)” value is 2.00.
For the compound `O=C([O-])CC(O)(CC(=O)[O-])C(=O)[O-].[67Ga+3]` [^67 Ga-citrate, reference compound], the “clearance from extracellular fluid” value in data set [1] (setting [6]) is recorded as “never cleared the extracellular fluid”. Further, the Liver Uptake result in data set [2] (setting [6]) was “unacceptably large liver uptake”.
For the compound `O=C([O-])CN(CCN(CC(=O)[O-])CC(=O)[O-])CCN(CC(=O)[O-])CC(=O)[O-].[99Tc+4]` [^99m Tc-DTPA], in data set [4], the elimination route entry was “eliminated from the body by the kidneys into the urine” and the tissue localization result is given as “does not result in the radionuclide localizing in any tissue”.
Consider `O=C(O)CN(CCN(CC(=O)O)CC(=O)O)CC(=O)O` [ethylenediaminetetraacetic acid (EDTA), ethylenediaminetetraacetic acid], for which the tumor imaging entry in the data set on Ehrlich tumors was “less effective”.
As for `O=C(O)CN(CCO)CCN(CC(=O)O)CC(=O)O` [hydroxyethylethylenediaminetriacetic acid], in the data set with Ehrlich tumors, the tumor imaging result was “less effective”.
As for `O=C(O)CNCC(=O)O` [iminodiacetic acid (IDA), iminodiacetic acid], in the data set with Ehrlich tumors, the tumor imaging entry is recorded as “less effective”.
With `CN(CC(=O)O)CC(=O)O` [methyliminodiacetic acid (MIDA), methyliminodiacetic acid], the tumor imaging result with Ehrlich tumors was “less effective”.
Regarding `O=C(O)CN(CC(=O)O)CC(=O)O` [nitrilotriacetic acid (NTA), nitrilotriacetic acid], the tumor imaging result with Ehrlich tumors was “less effective”.
With ^99m Tc-ethylenediaminediacetic acid, the tumor imaging entry in the data set on Ehrlich tumors is recorded as “could be used to image tumors”.
